In patent US20260265242A1, “FABK INHIBITOR COMPOSITIONS” (The Texas A&M University System, priority 2023, published 2026):
In brackets after ≈: the same amount, converted by molar mass. Read-outs that look alike come from different tables or passages of the source. Values belong to the compound of their own block, whether it stands above or below them.

Tested on: C. difficile strain R20291
Experiment: MIC determination by broth microdilution
Format: cell-based
Details: for MIC: Clostridioides difficile; for MIC (anti-C. difficile activity): unit printed as g/mL
[1] = R20291, 24 h, Table 1, BHI broth, 24 h anaerobic, 37° C., read-out: R20291 MIC
[2] = R20291, 24 h, read-out: R20291 MIC
[3] = Table 2, BHI broth, 24 h anaerobic, 37° C.
[4] = R20291, 24 h, Table 2, BHI broth, 24 h anaerobic, 37° C., read-out: R20291 MIC
[5] = R20291, running text, read-out: MIC (anti-C. difficile activity)
[6] = R20291, Table 3, read-out: R20291 MIC

Experimental: Strain R20291 was grown anaerobically overnight in BHI broth in a Don Whitley A35 anaerobic at 37° C. Compounds were serially two-fold diluted (100-0.1 μg/mL) and incubated anaerobically for 1 h before being inoculated with 100 μL of bacteria prepared as a 1:100 dilution of the overnight culture. After 24 h of anaerobic incubation at 37° C., MICs were recorded as the lowest concentration of compound that inhibited visible growth. MICs reported were performed in biological duplicates and values are shown as a range, where found.

MIC [1]: 1.56 to 3.12 µg/mL (≈ 3.19 to 6.39 µM)
Structure (SMILES): O=C(NCc1nc(-c2ccc(Br)cc2)c[nH]1)Nc1ncc(Sc2ncccn2)s1 [Compound 5b]

Structure (SMILES): O=C(NCc1nc(-c2ccc(Br)cc2)c[nH]1)Nc1ncc(Sc2ccccc2)s1 [Compound 5c]
MIC [2]: 1.56 to 3.12 µg/mL (≈ 3.21 to 6.41 µM)

Structure (SMILES): O=C(NCc1nc(-c2ccc(Br)cc2)c[nH]1)Nc1ncc(Sc2ccc(Br)cc2)s1 [Compound 5d]
MIC [2]: 25 µg/mL (≈ 44.2 µM)

MIC [1]: 3.12 µg/mL (≈ 5.98 µM)
MIC (anti-C. difficile activity): 3.12 µg/mL (≈ 5.98 µM)
Structure (SMILES): O=C(NCc1nc(-c2ccc(Br)cc2)c[nH]1)Nc1ncc(Sc2ccc(Cl)cn2)s1 [Compound 5e]

MIC (anti-C. difficile activity): 3.12 µg/mL (≈ 5.62 µM)
Structure (SMILES): O=C(NCc1nc(-c2ccc(Br)cc2)c[nH]1)Nc1ncc(Sc2ccc(C(F)(F)F)cn2)s1 [Compound 5f]

MIC [1]: 1.56 µg/mL (≈ 2.81 µM)
Structure (SMILES): O=C(NCc1nc(-c2ccc(Br)cc2)c[nH]1)Nc1ncc(Sc2ncccc2C(F)(F)F)s1 [Compound 5g]

MIC [1]: > 50 µg/mL
Structure (SMILES): O=C(NCc1nc(-c2ccc(Br)cc2)c[nH]1)Nc1ncc(Sc2ccc3ccccc3n2)s1 [Compound 5h]

Structure (SMILES): O=C(NCc1nc(-c2ccc(Br)cc2)c[nH]1)Nc1ncc(Sc2nc3ccccc3s2)s1 [Compound 5i]
MIC [2]: > 50 µg/mL

Structure (SMILES): O=C(NCc1nc(-c2ccc(Br)cc2)c[nH]1)Nc1nc2ccccc2s1 [Compound 6a]
activity against C. difficile in MIC testing (in words): inactive
MIC [2]: > 50 µg/mL

R20291 MIC [3]: 1.56 µg/mL
Structure (SMILES): O=C(NCc1nc(-c2ccc(Br)cc2)c[nH]1)Nc1nc2c(C(F)(F)F)cccc2s1 [Compound 6b]

MIC [4]: 3.12 µg/mL (≈ 6.29 µM)
Structure (SMILES): O=C(NCc1nc(-c2ccc(Br)cc2)c[nH]1)Nc1nc2cc(C(F)(F)F)ccc2s1 [Compound 6c]

R20291 MIC [3]: 12.5 µg/mL
Structure (SMILES): O=C(NCc1nc(-c2ccc(Br)cc2)c[nH]1)Nc1nc2c(C(F)(F)F)cccc2s1 [Compound 6e]

MIC [5]: > 100 µg/mL
Structure (SMILES): CS(=O)(=O)c1ccc2nc(NC(=O)NCc3nc(-c4ccc(Br)cc4)c[nH]3)sc2c1 [Compound 6f]

MIC [4]: 50 µg/mL (≈ 98.6 µM)
Structure (SMILES): O=C(NCc1nc(-c2ccc(Br)cc2)c[nH]1)Nc1nc2ccc(Br)cc2s1 [Compound 6g]

MIC [5]: 6.25 µg/mL (≈ 13.5 µM)
Structure (SMILES): O=C(NCc1nc(-c2ccc(Br)cc2)c[nH]1)Nc1nc2ccc(Cl)cc2s1 [Compound 6h]

MIC [5]: 12.5 µg/mL (≈ 26.9 µM)
Structure (SMILES): O=C(NCc1nc(-c2ccc(Br)cc2)c[nH]1)Nc1nc2c(F)cc(F)cc2s1 [Compound 6j]

MIC [4]: 12.5 µg/mL (≈ 26.5 µM)
Structure (SMILES): CCOc1ccc2nc(NC(=O)NCc3nc(-c4ccc(Br)cc4)c[nH]3)sc2c1 [Compound 6k]

MIC [5]: 12.5 to 25 µg/mL (≈ 24.4 to 48.8 µM)
Structure (SMILES): O=C(NCc1nc(-c2ccc(Br)cc2)c[nH]1)Nc1nc2ccc(OC(F)(F)F)cc2s1 [Compound 6l]

MIC [5]: 0.39 µg/mL (≈ 0.775 µM)
Structure (SMILES): S=C(NCc1nc(-c2ccc(Br)cc2)c[nH]1)Nc1ncc(Sc2ccccn2)s1 [Compound 7a]

MIC [6]: > 50 µg/mL
Structure (SMILES): O=C(NCc1nc(-c2ccccc2)n[nH]1)Nc1ncc(Sc2ccccn2)s1 [Compound 8a]

MIC [6]: > 50 µg/mL
Structure (SMILES): O=C(NCc1nc2ccccc2c(=O)[nH]1)Nc1ncc(Sc2ccccn2)s1 [Compound 8c]

Structure (SMILES): CN[C@H](CC(C)C)C(=O)N[C@H]1C(=O)N[C@@H](CC(N)=O)C(=O)N[C@H]2C(=O)N[C@H]3C(=O)N[C@H](C(=O)N[C@H](C(=O)O)c4cc(O)cc(O)c4-c4cc3ccc4O)[C@H](O)c3ccc(c(Cl)c3)Oc3cc2cc(c3O[C@@H]2O[C@H](CO)[C@@H](O)[C@H](O)[C@H]2O[C@H]2C[C@](C)(N)[C@H](O)[C@H](C)O2)Oc2ccc(cc2Cl)[C@H]1O [Vancomycin, reference compound]
MIC [2]: 0.39 to 0.78 µg/mL (≈ 0.269 to 0.538 µM)
R20291 MIC [3]: 0.39 to 0.78 µg/mL
